Measurements from patent publication EP2345639A1, “Cyclic hydroxylamine derivatives, their preparation and use as antioxidants” (ABIOGEN PHARMA S.p.A., priority 2009, dated 2011).

How the values were obtained:
[1] = TEAC method (Trolox Equivalent Antioxidant Capacity Assay); format: biochemical; conditions: ratio of gradient to gradient of Trolox; 650 nm, 37 °C, about 90 minutes
From the text: This assay is used to measure the total antioxidant activity of pure substances, biological fluids and plant compounds and is based on the reaction of antioxidants with the cation radical ABTS·^+ (2,2'-azinobis(3-ethylbenzothiazolin-6-sulphonate)). This cation radical is metastable and has to be generated just before the experiment by reacting ABTS with hydrogen peroxide in the presence of HRP. This radical can be reduced, with consequent loss of absorbance, by an antioxidant whose scavenging capacity can be measured spectrophotometrically at 650 nm. The test is carried out at 37 °C and the results are obtained from a comparison with Trolox (a synthetic antioxidant and hydrophilic analogue of vitamin E).
The ABTS solution S1 was prepared as follows: • 20 mg of ABTS were added to 50 mM of citric acid buffer (40 ml) at pH=4.5 and to the resulting solution there was added an aqueous solution of HRP (4.4 mg, 400 µl) and an aqueous solution of H2O2 (10 µl of a 30% solution diluted with 16.3 ml of water).
For each of the compounds (1)-(11), as synthesized above, there was prepared a 600 µM solution in water, methanol or DMSO according to its solubility, as well as a Trolox solution as reference.
Each solution was diluted to produce 6 solutions each at a concentration between 25 µM and 300 µM. From each of the diluted and divided solutions, there were withdrawn 20 µl to which 200 µl of solution S1 were then added.
The decrease in absorbance of each solution thus obtained was monitored at 650 nm until a stable value was reached (about 90 minutes).
For each set of 6 solutions and for the reference trolox solution, the absorption was given in graph form as a function of the amount of compound (nmol) in the solution. The gradient of the straight line obtained by linear interpolation was determined according to the least squares method. The TEAC value of each compound of the invention is given in the table below and is expressed as the ratio between the gradient of the resulting straight line and the gradient of the reference (trolox) straight line.

[2] = test system: healthy animals; test: Effect of the compounds on healthy animals (same in vivo assay, cerebral oxidative parameters); parameters: species or system mice; conditions: healthy mice; for Average % variation with respect to the vehicle: 50 mg/kg IP for three consecutive days, mean over all parameters, D = doxorubicin alone; for CAT/pr / GPX/pr / GSH/pr / GST/pr / Prot. Hmg / Prot. Ox/pr / SOD/pr / Brain/BWi: 50 mg/kg IP x3 days, percentage change relative to the vehicle
Method: (§1) 10 mice were used for each treatment group. For each compound 50 mg/kg were administered intraperitoneally (IP) for three consecutive days (day 0, 1 and 2); half the animals (5) also received IP 16.7 mg/kg of doxorubicin immediately after the first treatment (day 0). On the day after the last administration (day 3) the animals were killed by neck dislocation and the brains were removed, weighed and frozen in liquid nitrogen.
(§2) For the analyses of oxidative stress, 100 mg/ml of brain homogenate was prepared in HEB^(*) buffer (pH 7.4 EDTA/HEPES^(**)) containing a mixture of enzyme inhibitors (Leupeptin, Pepstatin, Aprotinin, BHA).
(§3) The evaluation parameters were: • BrW/BWi: ratio between final brain weight and initial body weight (day 0); • Prot. Hmg: total proteins in the homogenate (BCA method, i.e. bicinchoninic acid); • Prot. Ox: oxidized proteins in the Hmg by means of a colorimetric method using dinitrophenylhydrazone (DNPH); • GSH: reduced glutathione in the supernatant (sn) of the Hmg, obtained after precipitation with metaphosphoric acid (MPA), by means of a colorimetric method using dithiodinitrobenzene (DTNB); • CAT: catalase in the Hmg by a colorimetric method using potassium dichromate; • SOD: superoxide dismutase by a colorimetric method using SOD Reagent (xanthine, EDTA, nitroblue tetrazole, Na2CO3, BSA, i.e. bovine serum albumin); • GST: glutathione S-transferase in the supernatant by a colorimetric method using chlorodinitrobenzene (CDNB) and GSH; and • GPx: glutathione peroxidase in the supernatant after addition of GSH and t-BuOOH, heating and precipitation with MPA; followed by GSH method with DTNB. The assay was performed on the compounds (1)-(5) and (7)-(11) and on edaravone (E), as comparative compound.
The mean % effect, on all the parameters simultaneously, of the triple treatment in healthy animal, as mean percentage change relative to the vehicle. This value is useful as an approximate safety index of the oxidative state of the brain, i.e. the capacity of the compounds of the invention not to alter cerebral homeostasis in healthy animals.

[3] = Acid dissociation constants (pKa) by titration; format: physicochemical; conditions: pH at semi-neutralization point of titration with 0.1 N NaOH or HCl
Method: The following equipment was used during the implementation of all the examples: • for melting point determination a Buchi B-540 instrument was used; • the pKa is the pH at the semi-neutralization point of titration using a Mettler Toledo DL-50 instrument with a 0.1 N NaOH or HC! solution; • the ^1H-NMR spectra were recorded at 300 MHz and the ^13C-NMR spectra were recorded at 75 MHz using a Varian Unity 300 instrument; • spectrophotometric measurements were carried out using a Lambda Perkin Elmer 15 UV/Vis spectrophotometer for the DPPH assay and a Wallac Victor 1420 multilabel counter spectrophotometer.

[4] = test system: C6 cells (rat glioma) and BAEC cells (bovine aortic endothelial); test: In vitro inhibition of CHP-induced oxidative stress (DCF fluorescence); format: cell-based; conditions: 500 µM CHP, 4, 20, 100 and 500 µM compound, 30 minutes; depending on the concentrations and cell line
Method: The method used was essentially the one reported by Rüweler M. et al. ("Inhibition of peroxide-induced radical generation by plant polyphenols in C6 astroglioma cells" (2008) Toxicol in vitro 22, 1377-81), with a few minor modifications.
The cells were seeded in phenol-red free DMEM (Sigma Aldrich) into 96-well plates with 5% FBS and 20 mM HEPES at a density of 40,000 cells/well. After 48 hours, the medium was substituted by HBSS (Hanks' Balanced Salt Solution, Sigma) containing 10 µM of dihydro-2',7'-dichlorofluorescein diacetate (H2DCF-DA, Sigma Aldrich) and incubated in darkness for 30 minutes at 37 °C, in order to load the cells with fluorescent dye. H2DCF-DA was hydrolyzed enzymatically by the intracellular esterases to form non-fluorescent H2DCF, which was then rapidly oxidized to form 2',7'-dichlorofluorescein (DCF) being highly fluorescent in the presence of reactive species (RS). The intensity of DCF fluorescence is directly proportional to the amount of RS formed.
After carrying out two washes, the cells were exposed to 500 µM of CHP and various concentrations (4, 20, 100 and 500 µM) of the compounds of the invention for 30 minutes at 37 °C. Fluorescence was then measured, after cell washing, by a microplate reader at an excitation wavelength of 485 nm and an emission wavelength of 535 nm.
Six wells per plate per concentration of test composition (compound + CHP) and per control (HBSS without CHP) were measured and 12 wells were used as reference for CHP-induced stress. In addition, each 96-well plate contained 6 wells that received the highest concentration of the tested compounds without CHP, to investigate whether the compounds of the invention alone were able to induce cellular radical formation.
When using this assay, it should be borne in mind that DCF fluorescence is a generalized indicator of oxidative stress rather than of any particular reactive species, i.e. it is not a direct assay for H2O2 or other reactive species (Halliwell B, Whiteman M. (2004) "Measuring reactive species and oxidative damage in vivo and in cell culture: how should you do it and what do the results mean?" Br. J. Pharmacol. 142 231-255). Therefore, when an increase in DCF fluorescence induced by exposure of cells to CHP was measured, as was carried out in these assays, it was not possible to deduce which reactive species was responsible. Inhibition of CHP-induced fluorescence was evaluated by means of different concentrations of the compounds of the invention and comparative compounds such as Trolox and edaravone.

[5] = Brain-to-plasma concentration ratio in mice; format: in vivo, Female CD-1 mice; conditions: female, CD-1, mouse, ip, 25 mg/kg intraperitoneal, area under the curve of brain and plasma concentrations 0 to 60 minutes, read-out: B/P ratio
Method: The ability of the compounds of the invention to penetrate the brain was investigated by measuring their brain/plasma (B/P) ratio in mice following intraperitoneal administration.
Female CD-1 mice were used (n=3 for each time period) and received the compounds of the invention by intraperitoneal administration, in 25 mg/kg doses in a 0.5% NaHCO3 buffer (pH 8.3). At predefined intervals following said administration, i.e. 5, 15, 30 and 60 minutes, the mice were killed and both plasma and total brain tissue were collected.
Specifically, after anaesthesia with ether, the animals were bled by blood withdrawal from the abdominal aorta then immediately decapitated. The blood samples were collected into plasma separator tubes containing Li-Heparin as anticoagulant and centrifuged. The resulting plasma was then stored at -20 °C. The brain was rapidly removed from the cranium and weighed, subsequently frozen and stored at -20 °C before treatment by homogenization and HPLC analysis.
The plasma was thawed and mixed with an equal volume of the extraction solution.
1 ml of solution was then extracted by adding 20 µl of 70% HClO4, then centrifuged at 15,500g for 5 minutes and injected into the HPLC.
Each brain was thawed and homogenized with the extraction solution to provide a final composition of 4 ml/1g of tissue by means of an Ultra-Turrax blender and sonicated for 5 minutes. After centrifugation of the homogenate at 15,500g for 5 minutes, the resulting solution was treated with HClO4, as indicated for the plasma. Specific chromatographic conditions had been developed for each analyte, the calibration curve being constructed for plasma and brain homogenate.

[6] = test system: doxorubicin-induced cerebral oxidative stress in mice; test: In vivo assay of cerebral oxidative stress induced in mice by doxorubicin (model and oxidized animals); conditions: % incidence of D relative to V
Method: The assay was carried out on compounds (1)-(5) and (7)-(11) and on edaravone (E) as comparative compound.
as §1, §2, §3
The mean effect (n=5 experiments) of doxorubicin (D), i.e. "oxidized" animal, relative to the vehicle (V), the vehicle representing the healthy animal.
All the parameters, with the exclusion of Brain/BWi and Prot. Hmg, were normalized for total Hmg proteins. The D value standard deviations and the % incidence relative to V are given in italics.
The effect of the tested compounds on the "oxidized" animals was given as % inhibition relative to the percentage change due to doxorubicin alone. The effect of the compounds on the oxidized animals can be expressed both as a function of the values of the vehicle (healthy, vehicle only) and as a function of the value of its own (healthy, compound only): • Vehicle: percentage [(Compound+D)/V]x100/[(V+D)/V]x100 • Its own: percentage [(Compound+D)/Compound]x100/[(V+D)/V]x100
Again in this case, the mean % effect relative to doxorubicin alone could be given for all the parameters simultaneously, as an approximate index of effectiveness on the cerebral oxidative state of the animal.

SMILES: Cc1cc(O)c(C2COCCN2O)c(=O)o1 (centres unmarked) [(9), 4-hydroxy-3-(4-hydroxymorpholin-3-yl)-6-methyl-2H-pyran-2-one]
- TEAC [1]: 1.2
- Average % variation with respect to the vehicle [2]: -9.9%
- pKa1 [3]: 2.85
- pKa2 [3]: 5.71

SMILES: CC1(C)CC(=O)C(C2CC(C)(C)CCN2O)C(=O)C1 (centres unmarked) [(1), 2-(1-hydroxy-4,4-dimethylpiperidin-2-yl)-5,5-dimethylcyclohexane-1,3-dione]
- Inhibition of CHP-induced fluorescence [4]: effective
- TEAC [1]: 1.0
- Kp [5]: > 0.1
- Average % variation with respect to the vehicle [2]: -7.0%
- pKa1 [3]: 3.35
- pKa2 [3]: 6.83

SMILES: O=C1O[C@H]([C@@H](O)CO)C(O)=C1O [vitamin C, reference compound]
- TEAC [1]: 0.9

SMILES: COc1cccc2c1C(=O)c1c(O)c3c(c(O)c1C2=O)C[C@@](O)(C(=O)CO)C[C@@H]3O[C@H]1C[C@H](N)[C@H](O)[C@H](C)O1 [doxorubicin, reference compound]
- %D Brain/BWi [6]: 93.1%
- %D CAT [6]: 86.8%
- %D GPX [6]: 90.1%
- %D GSH [6]: 87.5%
- %D GST [6]: 90.9%
- %D Prot. Hmg [6]: 108.3%
- %D Prot. Ox [6]: 117.2%
- %D SOD [6]: 85.7%
- Average % variation with respect to the vehicle [2]: -11.4%
- CAT/pr [2]: -13.2%
- GPX/pr [2]: -9.9%
- GSH/pr [2]: -12.5%
- GST/pr [2]: -9.1%
- Prot. Hmg [2]: 8.3%
- Prot. Ox/pr [2]: 17.2%
- SOD/pr [2]: -14.3%
- Brain/BWi ([2]; 50 mg/kg): 6.9%
- Brain/BWi ([2]; listed as D, 50 mg/kg): -6.9%

SMILES: O=C1CCCC(=O)C1C1COCCN1O (centres unmarked) [(6), 2-(4-hydroxymorpholin-3-yl)-cyclohexane-1,3-dione]
- TEAC [1]: 1.1
- pKa1 [3]: 3.00
- pKa2 [3]: 6.39

SMILES: Cc1c(C)c2c(c(C)c1O)CCC(C)(C(=O)O)O2 (centres unmarked) [Trolox, reference compound]
- Inhibition of CHP-induced fluorescence [4]: 10-50%

SMILES: CC1(C)CCN(O)C(C2C(=O)CC(c3ccccc3)CC2=O)C1 (centres unmarked) [(2), 2-(1-hydroxy-4,4-dimethylpiperidin-2-yl)-5-phenylcyclohexane-1,3-dione]
- TEAC [1]: 0.6
- Kp [5]: > 0.1
- Average % variation with respect to the vehicle ([2]; 50 mg/kg): did not significantly alter the parameters
- Average % variation with respect to the vehicle ([2]; listed as V+(2), 50 mg/kg): 3.6%
- Brain/BWi [2]: 7.6%
- CAT/pr [2]: -2.9%
- GPX/pr [2]: 6.6%
- GSH/pr [2]: 6.1%
- GST/pr [2]: 5.8%
- Prot. Hmg [2]: -2.2%
- Prot. Ox/pr [2]: -3.7%
- SOD/pr [2]: -0.2%
- pKa1 [3]: 3.21
- pKa2 [3]: 6.85
